In patent US11440913B2, “Aminoimidazopyridazines as kinase inhibitors” (BRISTOL-MYERS SQUIBB COMPANY, priority 2017, dated 2022):
Counter-ions that a name gives are not always drawn. Like-named read-outs stand apart in the source and are kept apart here.

Key:
[1] = test system: MLKL phosphorylation in HT29-L23 human colorectal adenocarcinoma cells; experiment: MLKL Phosphorylation High-Content Assay; assay type: cell-based; settings: 6 h, necroptosis induced with TNFα, SMAC mimetic and Z-VAD, read-out: pMLKL (IC50)
Summary of the method: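 HT29-L23 cells pretreated 30 min at 37 °C with compound (6.25 to 0.106 μM final), then necroptosis induced with TNFα 35 ng/mL, SMAC mimetic 700 nM and Z-VAD 140 nM for 6 h. Fixed cells immunostained for MLKL pS358 and imaged; IC50 and Ymax from 4-parameter logistic fit.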

[2] = target: His-GST-TVMV-hRIPK1(1-324) (Homo sapiens (Human), UniProt Q13546); experiment: RIPK1 HTRF Binding Assay; settings: HTRF binding, 1 h at rt; read-out: RIPK1 (IC50)
His-GST-TVMV-hRIPK1(1-324), sequence (Q13546 1-324): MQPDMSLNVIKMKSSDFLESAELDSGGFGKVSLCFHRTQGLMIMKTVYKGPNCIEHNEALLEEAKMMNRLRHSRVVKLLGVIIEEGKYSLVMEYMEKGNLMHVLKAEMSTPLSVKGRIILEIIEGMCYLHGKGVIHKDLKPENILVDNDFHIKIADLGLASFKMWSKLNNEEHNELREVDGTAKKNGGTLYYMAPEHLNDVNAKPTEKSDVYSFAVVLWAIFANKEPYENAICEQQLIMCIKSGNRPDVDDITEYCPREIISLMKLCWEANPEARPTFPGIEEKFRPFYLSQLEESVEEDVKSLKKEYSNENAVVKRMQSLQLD
Summary of the method: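 HTRF probe-displacement binding: 1 nM His-GST-TVMV-hRIPK1(1-324) (baculovirus construct), 90.6 nM probe, 0.2 nM anti-GST-Tb in 20 mM HEPES, 10 mM MgCl2, 0.015% Brij-35, 4 mM DTT, 0.05 mg/mL BSA. Incubated 1 h at rt; FRET 520/495 nm ratio, inhibition relative to DMSO-only wells.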

Row | SMILES | IC50 ([1]; Homo sapiens) [nM] | IC50 [2] [nM] | IC50 [1] [nM]
1 | CC(=O)Nc1cn2nc(-c3cnc(C)c(C(=O)NCc4ccccc4OCC4CC4)c3)ccc2n1 [Example 227, N-{[2-(cyclopropylmethoxy)phenyl]methyl}-5-{2-acetamidoimidazo [1,2-b]pyridazin-6-yl}-2-methylpyridine-3-carboxamide] | 21 | 8 | 
2 | COc1nc(C)c(-c2ccc3nc(NC(C)=O)cn3n2)cc1C(=O)NCc1ccccc1OC(C)CO (stereo not shown) [Example 17, 5-{2-acetamidoimidazo[1,2-b]pyridazin-6-yl}-N-({2-[(1-hydroxypropan-2-yl)oxy]phenyl}methyl)-2-methoxy-6-methylpyridine-3-carboxamide] | 129 | 27 | 
3 | Cc1ncc(-c2ccc3nc(NC(=O)C(C)(C)C#N)cn3n2)cc1C(=O)NCc1ccccc1Sc1ccccc1CO [Example 26, 5-[2-(2-cyano-2,2-dimethylacetamido)imidazo[1,2-b]pyridazin-6-yl]-N-[(2-{[2-(hydroxymethyl)phenyl]sulfanyl}phenyl)methyl]-2-methylpyridine-3-carboxamide] | 192 | 25 | 
4 | CC(=O)Nc1cn2nc(-c3cnc(C)c(C(=O)NCc4c(F)cccc4OCC4CC4)c3)ccc2n1 [Example 226, N-{[2-(cyclopropylmethoxy)-6-fluorophenyl]methyl}-5-{2-acetamidoimidazo[1,2-b]pyridazin-6-yl}-2-methylpyridine-3-carboxamide] | 3 | 6 | 
5 | [2H]C([2H])([2H])Oc1ncc(-c2ccc3nc(NC(C)=O)cn3n2)cc1C(=O)NCc1c(F)cccc1OCC(F)(F)F [Example 42, 5-{2-acetamidoimidazo[1,2-b]pyridazin-6-yl}-N-{[2-fluoro-6-(2,2,2-trifluoroethoxy)phenyl]methyl}-2-(D3)methoxypyridine-3-carboxamide] | 13 | 11 | 
6 | CC(=O)Nc1cn2nc(-c3cnc(Cl)c(C(=O)NC(C)c4cc(C(F)(F)F)ccc4F)c3)ccc2n1 (stereo not shown) [Example 269, 2-chloro-5-{2-acetamidoimidazo[1,2-b]pyridazin-6-yl}-N-{1-[2-fluoro-5-(trifluoromethyl)phenyl]ethyl}pyridine-3-carboxamide] | 209 | 55 | 
7 | CC(=O)Nc1nc2ccc(-c3cnc(C)c(C(=O)NCc4cc(OC(F)(F)F)ccc4F)c3)nn2c1C [Example 253, 5-{2-acetamido-3-methylimidazo[1,2-b]pyridazin-6-yl}-N-{[2-fluoro-5-(trifluoromethoxy)phenyl]methyl}-2-methylpyridine-3-carboxamide] | 53 | 14 | 
8 | COc1nc(C)c(-c2ccc3nc(NC(C)=O)cn3n2)cc1C(=O)NCc1cc(F)cc(OC(F)(F)F)c1 [Example 280, 5-{2-acetamidoimidazo[1,2-b]pyridazin-6-yl}-N-{[3-fluoro-5-(trifluoromethoxy)phenyl]methyl}-2-methoxy-6-methylpyridine-3-carboxamide] | 36 | 5 | 
9 | CC(=O)Nc1cn2nc(-c3cc(C(=O)NCc4cc(C(F)(F)F)ccc4F)c(C)nc3C)ccc2n1 [Example 80, 5-{2-acetamidoimidazo[1,2-b]pyridazin-6-yl}-N-{[2-fluoro-5-(trifluoromethyl)phenyl]methyl}-2,6-dimethylpyridine-3-carboxamide] | 15 | 14 | 
10 | COc1ncc(-c2ccc3nc(NC(C)=O)cn3n2)cc1C(=O)NCc1cc(F)cc(OCC2CC2)c1 [Example 140, N-{[3-(cyclopropylmethoxy)-5-fluorophenyl]methyl}-5-{2-acetamidoimidazo[1,2-b]pyridazin-6-yl}-2-methoxypyridine-3-carboxamide] | 77 | 17 | 
11 | [2H]C([2H])([2H])[C@@H](NC(=O)c1c(C)ccc(-c2ccc3nc(NC(C)=O)cn3n2)c1F)c1cc(C(F)(F)F)ccc1F [Example 413, 3-{2-acetamidoimidazo [1,2-b]pyridazin-6-yl}-2-fluoro-N-[(1R)-1-[2-fluoro-5-(trifluoromethyl)phenyl](2,2,2-Â^2Hâ,f)ethyl]-6-methylbenzamide] | 1 | 3 | 
12 | CC(=O)Nc1cn2nc(-c3cc(C(=O)NCC[C@H](O)c4ccc(Cl)cc4)c(C)cc3C)ccc2n1 [Example 383, N-[(3S)-3-(4-chlorophenyl)-3-hydroxypropyl]-5-{2-acetamidoimidazo [1,2-b]pyridazin-6-yl}-2,4-dimethylbenzamide] | 3 | 3 | 
13 | [2H]C([2H])([2H])Oc1ncc(-c2ccc3nc(NC(C)=O)cn3n2)cc1C(=O)NC(C)c1cc(C(F)(F)F)ccc1F (stereo not shown) [Example 52, 5-{2-acetamidoimidazo[1,2-b]pyridazin-6-yl}-N-{1-[2-fluoro-5-(trifluoromethyl)phenyl]ethyl}-2-(D3)methoxypyridine-3-carboxamide] |  | 65 | 185
14 | Cc1ncc(-c2ccc3nc(NC(=O)[C@H](C)O)cn3n2)cc1C(=O)N[C@H](C)c1cc(OC(F)(F)F)ccc1F [Example 339, N-((R)-1-(2-fluoro-5-(trifluoromethoxy)-phenyl)ethyl)-5-(2-((S)-2-hydroxypropanamido)-imidazo[1,2-b]pyridazin-6-yl)-2-methylnicotinamide] | 170 | 48 | 
15 | COc1ncc(-c2ccc3nc(NC(C)=O)cn3n2)cc1C(=O)N(C)Cc1cccc(OC(F)(F)F)c1 [Example 143, 5-{2-acetamidoimidazo[1,2-b]pyridazin-6-yl}-2-methoxy-N-methyl-N-{[3-(trifluoromethoxy)phenyl]meth-yl}pyridine-3-carboxamide] | 4 | 8 | 
16 | COc1ncc(-c2ccc3nc(NC(C)=O)cn3n2)cc1C(=O)NCc1cc(F)cc(F)c1OC1COC1 [Example 115, N-{[3,5-difluoro-2-(oxetan-3-yloxy)phenyl]methyl}-5-{2-acetamidoimidazo[1,2-b]pyridazin-6-yl}-2-methoxypyridine-3-carboxamide] | 65 | 12 | 
17 | [2H]C([2H])(NC(=O)c1cnc(C)c(-c2ccc3nc(NC(C)=O)cn3n2)c1)c1cc(OC(F)(F)F)ccc1F [Example 230, 5-{2-acetamidoimidazo[1,2-b]pyridazin-6-yl}-N-{[2-fluoro-5-(trifluoromethoxy)phenyl](deutero)methy 1}-6-methylpyridine-3-carboxamide] | 90 | 19 | 
18 | COc1nc(C)c(-c2ccc3nc(NC(C)=O)cn3n2)cc1C(=O)NCc1ccccc1OC(F)(F)F [Example 19, 5-{2-acetamidoimidazo[1,2-b]pyridazin-6-yl}-2-methoxy-6-methyl-N-{[2-(trifluoromethoxy)phenyl]methyl}pyridine-3-carboxamide] | 34 | 12 | 
19 | COc1nc(C)c(-c2ccc3nc(NC(C)=O)cn3n2)cc1C(=O)NCc1ncccc1OCC1CCCC1 [Example 312, N-{[3-(cyclopentylmethoxy)pyridin-2-yl]methyl}-5-{2-acetamidoimidazo[1,2-b]pyridazin-6-yl}-2-methoxy-6-methylpyridine-3-carboxamide, 2 TFA] |  | 7 | 38
20 | Cc1ncc(-c2ccc3nc(NC(=O)CO)cn3n2)cc1C(=O)N[C@@H](C)c1cc(OC(F)(F)F)ccc1F [Example 181, N-[(1S)-1-[2-fluoro-5-(trifluoromethoxy)phenyl]ethyl]-5-[2-(2-hydroxyacetamido)imidazo[1,2-b]pyridazin-6-yl]-2-methylpyridine-3-carboxamide] | 171 | 103 | 
